Experiment: gradient 5% acetonitrile 3 min, to 50% in 2 min, to 85% in 15 min, held 3 min, 100 µL/min
Conditions: column: Zorbax Extend-C18 2.1 x 50 mm; eluents: water / acetonitrile, 0.1% formic acid
Outline: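 In both positive and negative ionization mode, a quadrupole time-of-flight mass spectrometer coupled to HPLC analyzed pure standards run in mixtures of ~100 molecules. The Zorbax Extend-C18 column (2.1 × 50 mm, 1.8 μm) was operated at 100 μL/min with water and acetonitrile, each containing 0.1% formic acid. The dead volume was 40 μL and the dwell volume 900 μL. Retention time came from adduct peaks that were computationally picked and individually inspected by hand.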

| RP-LC retention time [s] | Structure (SMILES) |
| --- | --- |
| 604 | Cc1cc(=O)n(CC(=O)Nc2cccc(C#N)c2)c(N2CCOCC2)n1 |
| 878 | Cc1cccc(OCC(=O)N2C[C@@H](F)C[C@H]2C(=O)N2CCc3ccccc32)c1 |
| 721 | CCCN1C(=O)Cc2ccccc2C1C(=O)NCc1ccco1 (centres undefined) |
| 613 | Cn1ncc2c3ccccc3n(CC(=O)N3CCC(N4CCCCC4)CC3)c2c1=O |
| 697 | O=C(Cn1cnc2cc3c(cc21)OCCO3)Nc1cccc(C(F)(F)F)c1 |
| 731 | CCOc1ccc(CN2CCC(NC(=O)Cc3cccnc3)C2)cn1 (centres undefined) |
| 669 | O=C(NCc1cccc(C(F)(F)F)c1)C1(CCO)CCN(c2ncccn2)C1 (centres undefined) |
| 902 | O=C(NCCCc1ccccc1)c1cccc2c1CCN2C(=O)C1CC1 |
| 801 | CCCCC(=O)Nc1nc(-c2ccc3c(c2)NC(=O)CO3)cs1 |
| 632 | Cc1c(Cl)cccc1NC(=O)N1CCN(C2=CC3=NCC(C)N3C=N2)CC1 (centres undefined) |
| 701 | Cc1ccn2c(NC(=O)c3c(F)cccc3Cl)c(-c3ccc(F)cc3)nc2c1 |
| 625 | Cc1ccc(C(=O)N2CCc3sc(C(=O)N4CCN(C(C)C)CC4)cc3C2)cc1 |
| 888 | O=C(NCc1ccccc1Cl)c1nnc(-c2ccc(S(=O)(=O)N3CCOCC3)cc2)o1 |
| 1320 | COc1ccc(-n2c(=O)c(C(=O)Nc3ccc(F)cc3Cl)c(O)c3cccnc32)cc1 |
| 693 | Cc1cc(C)n2nc(SCC(=O)NC3CCCCC3)nc2n1 |
| 786 | O=C(NCCOc1ccc(F)cc1)c1ccc2nsnc2c1 |
| 571 | Cn1ccnc1N1CCN(C(=O)CSCc2ccccc2)CC1 |
| 850 | O=C(COc1ccc(F)cc1)NCC(=O)N1CCCc2ccccc21 |
| 596 | O=C(Cn1cnc2cc3c(cc21)OCCO3)NCc1ccc2c(c1)OCCCO2 |
| 1130 | CCc1ccc(N2C(=O)C3N=NN(Cc4nc(-c5cccc(C(F)(F)F)c5)no4)C3C2=O)cc1 (centres undefined) |
| 726 | CNC(=O)C1CN(C(=O)c2cccc(Cl)c2)CC12CCCC2 (centres undefined) |
| 628 | O=C1C(c2ccncc2)N(Cc2ccco2)C(=O)CN1c1ccccc1 (centres undefined) |

| RP-LC retention time [s] | Structure (SMILES) |
| --- | --- |
| 669 | Cc1ccc(C)c(-c2cc3c4nnc(CCC(=O)N5CCC(C(N)=O)CC5)n4ccn3n2)c1 |
| 938 | CC(C)CNC(=O)C1COC2(CCCCC2)N1C(=O)c1ccccc1C(F)(F)F (centres undefined) |
| 898 | O=C(Cn1cccc(-c2nc(-c3ccccc3)no2)c1=O)Nc1ccccc1Br |
| 777 | CCOC(=O)C1CCN(c2cc3c(cc2NC(=O)NC2CCCC2)n(C)c(=O)n3C)CC1 |
| 661 | CCNc1cc(N2CCCC(CCC(=O)NC(C)c3cccs3)C2)ncn1 (centres undefined) |
| 910 | CCCNC(=O)N1c2ccccc2CC1c1nc(C(C)C)no1 (centres undefined) |
| 665 | NCC(=O)Nc1ccc(Cl)cc1C(=O)c1ccc[nH]1 |
| 649 | Clc1cc(Cl)cc(-c2ccc(CNCc3ccncc3)o2)c1 |
| 1090 | Cc1ccc(-c2ccc(-n3nc(C)c(S(=O)(=O)NCc4ccccc4)c3C)nn2)cc1 |
| 905 | c1ccc(-c2nc3nccc(-c4ccc5c(c4)OCO5)n3n2)cc1 |
| 855 | CC1CCCCN1S(=O)(=O)c1ccc2c(c1)CCC(=O)N2CC(=O)NCc1ccc(F)cc1 (centres undefined) |
| 615 | O=C(Cn1c(-c2cnccn2)nc2ccccc21)N1CCN(C(=O)c2ccco2)CC1 |
| 758 | Cc1nn(CC(=O)NCCc2ccco2)c(=O)c2nn(-c3ccccc3)c(C)c12 |
| 726 | Cn1nnc2c(N3CCN(S(=O)(=O)c4cccs4)CC3)ncnc21 |
| 700 | CCCNC(=O)C1CCCN(c2ccc(SCC(=O)NCc3ccc(C(F)(F)F)cc3)nn2)C1 (centres undefined) |
| 605 | CCc1nc2c(c(=O)n1CC(=O)NC(C)(C)C)CN(Cc1ccccc1)CC2 |
| 872 | CCOC(=O)c1c(S(=O)(=O)N2CCC(C(=O)N3CCc4ccccc4C3)CC2)c(C)n(C)c1C |
| 802 | Cc1cccc(S(=O)(=O)NCc2c(-c3ccccc3)nc3sc(C)nn23)c1 |
| 1010 | O=C(Cn1nc(N2CCCC2)c2ccccc2c1=O)Nc1ccc(F)cc1Cl |
| 1020 | CC1CCCN(c2nc(C(=O)NC(C)C)cs2)C1 (centres undefined) |
| 558 | CN(CCNC(=O)NCc1noc2ccccc12)C1CCCCC1 |
| 692 | Cc1oc(-c2[nH]ncc2C(=O)N(C)C)cc1S(=O)(=O)NCCC(C)C |

| RP-LC retention time [s] | Structure (SMILES) |
| --- | --- |
| 580 | CN(C)CCNC(=O)C1CCN(c2cnc(N3CCSCC3)nc2)CC1 |
| 1140 | CCOc1ccccc1C(=O)Nc1nnc(SC(C)c2ccccc2)s1 (centres undefined) |
| 892 | COc1ccc(-c2nnc(COc3ccc(NC(=O)c4ccsc4)cc3)o2)cc1 |
| 729 | O=C(CCSc1ccc(F)cc1)Nc1nnc(-c2ccco2)o1 |
| 828 | O=C(NCc1ccc(F)c(Cl)c1)c1csc(C(=O)NC2CC2)n1 |
| 1080 | Cn1nccc1-c1cccc(-c2noc(-c3ccc(CS(=O)(=O)c4ccccc4)cc3)n2)c1 |
| 681 | O=C(NC1CC1)C1CCN(c2cnn(Cc3ccccc3)c(=O)c2)CC1 |
| 597 | FC(F)(F)Oc1ccccc1CN1CCC[C@H]1c1nc(C2CCOCC2)n[nH]1 |
| 906 | COc1ccc(Nc2c(C(=O)N3CCCC3)cnc3nc(C)ccc23)cc1OC |
| 893 | COc1ccc(-c2csc(NC(=O)CS(=O)(=O)c3ccc(C)cc3)n2)cc1OC |
| 617 | CCC(C)NC(=O)CCC(=O)N1CCc2c(c(C(=O)N3CCCC3)nn2C)C1 (centres undefined) |
| 639 | COc1ccc(/C=C/c2nc(NCCCN(C)C)c3ccccc3n2)cc1 |
| 708 | O=C(Cn1c(=O)ccc2cc(S(=O)(=O)N3CCCC3)ccc21)N1CCN(c2ncccn2)CC1 |
| 634 | CCOC(=O)N1CCN(c2cc(C(=O)O)c3cc(NC(=O)Cc4ccc(OC)cc4)ccc3n2)CC1 |
| 747 | COC(=O)C1CCN(C(=O)c2cccnc2-c2nc3ccccc3s2)CC1 |
| 847 | Cc1ccc(CN2CCN(C3CCN(S(=O)(=O)c4ccccc4Cl)CC3)C(=O)C2=O)cc1 |
| 916 | CCc1cccc(C)c1Nc1c(-c2ccc(SC)cc2)nc2ncccn12 |
| 643 | CCCc1cc(N2CCN(C(=O)c3ccc(C)s3)CC2)nc2nnc(C)n12 |
| 1060 | COc1cc(OC)c(Nc2cc(C)nc3nc(-c4ccc(C)cc4)nn23)cc1Cl |
| 686 | CN(C)c1nc2ncn3c(=O)n(CC(=O)Nc4cccc(F)c4)nc3c2s1 |
| 734 | O=C(Nc1nc(-c2ccccc2)cs1)c1ccncc1 |
| 790 | CN(C)C(=O)N1CC(c2nc(-c3ccc(F)cc3)no2)C2(CCOCC2)C1 (centres undefined) |

| RP-LC retention time [s] | Structure (SMILES) |
| --- | --- |
| 833 | Cc1ccc(-c2nc(N3CCCCCC3)c3ccccc3n2)cc1 |
| 970 | Cn1cnc([N+](=O)[O-])c1S(=O)(=O)Oc1cccc2ccccc12 |
| 874 | O=C(NCc1csc(-c2ccccc2)n1)[C@H]1CCCN1C(=O)Nc1ccc(Br)cc1 |
| 661 | Cc1nc(-c2cn(C(C)C)c3ncccc23)sc1C(=O)N1CCN(CC(C)C)CC1 |
| 815 | CCOc1ccc(C(=O)N2CCN(S(=O)(=O)c3cc4c5c(c3)CCC(=O)N5CCC4)CC2)cc1 |
| 1040 | COc1ccc(-c2nnc(-c3cc(S(=O)(=O)NCc4cccs4)ccc3Cl)o2)cc1 |
| 808 | COc1ccc(NC(=O)Cn2ncc3c(c2=O)N(CC2CC2)C(=O)CS3)cc1Cl |
| 943 | Cc1ccccc1-c1noc(Cn2ccn(Cc3ccc(Cl)cc3)c(=O)c2=O)n1 |
| 685 | CC(C)Oc1ccc(CNC(=O)C2CCN(c3nnc4ccccn34)CC2)cc1 |
| 544 | COc1cccc(N2CC(NC(=O)Nc3cccnc3)CC2=O)c1 (centres undefined) |
| 725 | O=C(c1ccccc1C(F)(F)F)N1CCN(S(=O)(=O)C2CC2)CC1 |
| 968 | COc1cccc(NC(=O)N2CCOc3ccc(C)cc32)c1 |
| 1280 | O=C(Nc1cccc(Cl)c1Cl)C1(c2ccc(F)cc2)CC1 |
| 1180 | c1ccc(-c2cc(NCc3ccccn3)n3ncc(-c4ccccc4)c3n2)cc1 |
| 830 | O=C1CCC(NC(=O)OCc2ccccc2)(C(=O)OCc2ccccc2)O1 (centres undefined) |
| 562 | Cc1cc(C)cc(N2C(=O)CC(N3CCC(C(N)=O)CC3)C2=O)c1 (centres undefined) |
| 952 | Cn1c(=O)c2c(ncn2CCCNCC(O)c2cc(O)cc(O)c2)n(C)c1=O (centres undefined) |
| 611 | CCN1CCCC1CNC(=O)C1c2cc(OC)c(OC)cc2C(=O)N(C)C1c1ccc(OC)cc1 (centres undefined) |
| 1030 | Cc1nc(C(=O)Nc2ccc(Cl)cc2C)c(C)o1 |
| 1080 | Cc1nc2cc(-c3noc(/C=C/c4cccs4)n3)ccc2o1 |
| 1020 | CCN1C(=O)C2(CCN(C(=O)c3ccc(OC(C)C)cc3)CC2)c2ccccc21 |
| 734 | O=C(N[C@H](Cc1ccccc1)C(=O)NCc1cscn1)c1ccccc1F |

| Structure (SMILES) | RP-LC retention time [s] |
| --- | --- |
| CN1Cc2ccccc2-n2ccnc2C12CCN(C(=O)c1cc(F)cc(F)c1)CC2 | 618 |

From the METLIN SMRT retention time set (Domingo-Almenara et al. 2019)
